≈ marks a conversion by molar mass, not a printed value.
Assays:
Format in all cases: cell-based
[1] = tested on: Klebsiella pneumoniae 1000-02; test: minimum inhibitory concentration (MIC) testing according to CLSI guidelines, Klebsiella pneumoniae; details: Klebsiella pneumoniae; ciprofloxacin-resistant, ESBL-expressing clinical isolate 1000-02; overnight incubation; lower of duplicate values; read-out: AB-MBT: Klebsiella pneumoniae 1000-02: MIC (MstRcnt)
Summary of the method: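 MIC by CLSI broth dilution with 2-fold concentration steps and overnight incubation; lowest concentration visibly inhibiting growth versus drug-free control. Ciprofloxacin-resistant, ESBL-expressing clinical isolate 1000-02. Run in duplicate, lower value reported when within 2-fold, with QC organisms and reference compounds per run.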

[2] = tested on: Acinetobacter baumannii/haemolyticus AB-3167; test: minimum inhibitory concentration (MIC) testing according to CLSI guidelines, Acinetobacter; details: Acinetobacter baumannii; multidrug-resistant clinical isolate AB-3167; overnight incubation; lower of duplicate values; read-out: AB-MBT: Acinetobacter baumanii AB-3167: MIC (MstRcnt)
Summary of the method: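 Broth dilution MIC per CLSI M7-A8/M100-S20 against multidrug-resistant clinical isolate AB-3167, using 2-fold drug dilutions and overnight incubation; MIC is the lowest concentration without visible growth. Duplicates within 2-fold reported as the lower value, with control strains and reference compounds in range.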

[3] = tested on: Pseudomonas aeruginosa UC-12120; test: minimum inhibitory concentration (MIC) testing according to CLSI guidelines, Pseudomonas aeruginosa; details: Pseudomonas aeruginosa, UC12120; UC-12120, wild-type, labeled as 1091-05; overnight incubation; lower of duplicate values; read-out: AB-MBT: Pseudomonas aeruginosa 1091-05: MIC (MstRcn)
Summary of the method: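 Broth dilution MIC per CLSI guidelines against wild-type P. aeruginosa UC-12120 (1091-05), using 2-fold drug dilutions and overnight incubation with visual reading of lowest growth-inhibiting concentration. Tested in duplicate; lower value reported when within 2-fold, with control organisms and reference compounds for quality control.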

SMILES | MIC [1] [µg/mL] | MIC [3] [µg/mL] | MIC [2] [µg/mL]
Nc1nc(/C(=N/OC2(C(=O)O)CCC2)C(=O)N[C@@H]2C(=O)N(S(=O)(=O)O)[C@@H]2CNC(=O)c2ccc(CNC(=O)c3cc(=O)c(O)cn3O)cc2)cs1 [Example 62, 1-({[(1Z)-1-(2-amino-1,3-thiazol-4-yl)-2-{[(2R,3S)-2-({[4-({[(1,5-dihydroxy-4-oxo-1,4-dihydropyridin-2-yl)carbonyl]amino}methyl)benzoyl]amino}methyl)-4-oxo-1-sulfoazetidin-3-yl]amino}-2-oxoethylidene]amino}oxy)cyclobutanecarboxylic acid] | 1 (≈ 1.34 µM) | 2 (≈ 2.67 µM) | 0.5 (≈ 0.668 µM)
N#C/N=C(\NCc1cc(=O)c(O)cn1O)NC[C@@H]1[C@H](NC(=O)/C(=N\OC2(C(=O)O)CCC2)c2csc(N)n2)C(=O)N1S(=O)(=O)O [Example 63, 1-({[(1Z)-1-(2-amino-1,3-thiazol-4-yl)-2-{[(2R,3S)-2-({[(Z)-(cyanoimino){[(1,5-dihydroxy-4-oxo-1,4-dihydropyridin-2-yl)methyl]amino}methyl]amino}methyl)-4-oxo-1-sulfoazetidin-3-yl]amino}-2-oxoethylidene]amino}oxy)cyclobutanecarboxylic acid] | 1 (≈ 1.5 µM) | 0.25 (≈ 0.374 µM) | 0.5 (≈ 0.748 µM)
Nc1nc(/C(=N/OC2(C(=O)O)CCC2)C(=O)N[C@@H]2C(=O)N(S(=O)(=O)O)[C@@H]2CNC(=O)c2cccc(C(=O)NCc3cc(=O)c(O)cn3O)c2)cs1 [Example 64, 1-({[(1Z)-1-(2-amino-1,3-thiazol-4-yl)-2-{[(2R,3S)-2-{[(3-{[(1,5-dihydroxy-4-oxo-1,4-dihydropyridin-2-yl)methyl]carbamoyl}benzoyl)amino]methyl}-4-oxo-1-sulfoazetidin-3-yl]amino}-2-oxoethylidene]amino}oxy)cyclobutanecarboxylic acid] | 0.25 (≈ 0.334 µM) | 1 (≈ 1.34 µM) | 0.5 (≈ 0.668 µM)
Nc1nc(/C(=N/OC2(C(=O)O)CCC2)C(=O)N[C@@H]2C(=O)N(S(=O)(=O)O)[C@@H]2CNC(=O)C(=O)NCc2cc(=O)c(O)cn2O)cs1 [Example 65, 1-({[(1Z)-1-(2-amino-1,3-thiazol-4-yl)-2-{[(2R,3S)-2-({[{[(1,5-dihydroxy-4-oxo-1,4-dihydropyridin-2-yl)methyl]amino}(oxo)acetyl]amino}methyl)-4-oxo-1-sulfoazetidin-3-yl]amino}-2-oxoethylidene]amino}oxy)cyclobutanecarboxylic acid] | 0.25 (≈ 0.372 µM) | 0.06 (≈ 0.0892 µM) | 0.125 (≈ 0.186 µM)
Nc1nc(/C(=N/OC2(C(=O)O)CCCC2)C(=O)N[C@@H]2C(=O)N(S(=O)(=O)O)[C@@H]2CNC(=O)c2cc(=O)c(O)cn2O)cs1 [Example 66, 1-({[(1Z)-1-(2-amino-1,3-thiazol-4-yl)-2-{[(2R,3S)-2-({[(1,5-dihydroxy-4-oxo-1,4-dihydropyridin-2-yl)carbonyl]amino}methyl)-4-oxo-1-sulfoazetidin-3-yl]amino}-2-oxoethylidene]amino}oxy)cyclopentanecarboxylic acid] | 0.125 (≈ 0.199 µM) | 0.5 (≈ 0.794 µM) | 0.5 (≈ 0.794 µM)

Now from value to compound, other results behind:

MIC [1] [µg/mL] | MIC [3] [µg/mL] | SMILES | MIC [2] [µg/mL]
4 (≈ 5.54 µM) | 4 (≈ 5.54 µM) | CC(C)(O/N=C(\C(=O)N[C@@H]1C(=O)N(S(=O)(=O)O)[C@@H]1CNC(=O)c1cccc(NC(=O)c2cc(=O)c(O)cn2O)c1)c1csc(N)n1)C(=O)O [Example 67, 2-({[(1Z)-1-(2-amino-1,3-thiazol-4-yl)-2-{[(2R,3S)-2-{[(3-{[(1,5-dihydroxy-4-oxo-1,4-dihydropyridin-2-yl)carbonyl]amino}benzoyl)amino]methyl}-4-oxo-1-sulfoazetidin-3-yl]amino}-2-oxoethylidene]amino}oxy)-2-methylpropanoic acid] | 2 (≈ 2.77 µM)
1 (≈ 1.29 µM) | 4 (≈ 5.18 µM) | CC(C)(O/N=C(\C(=O)N[C@@H]1C(=O)N(S(=O)(=O)O)[C@@H]1CNS(=O)(=O)c1cccc(C(=O)NCc2cc(=O)c(O)cn2O)c1)c1csc(N)n1)C(=O)O [Example 68, 2-({[(1Z)-1-(2-amino-1,3-thiazol-4-yl)-2-{[(2R,3S)-2-({[(3-{[(1,5-dihydroxy-4-oxo-1,4-dihydropyridin-2-yl)methyl]carbamoyl}phenyl)sulfonyl]amino}methyl)-4-oxo-1-sulfoazetidin-3-yl]amino}-2-oxoethylidene]amino}oxy)-2-methylpropanoic acid] | 4 (≈ 5.18 µM)
1 (≈ 1.65 µM) | 0.25 (≈ 0.414 µM) | Nc1nc(/C(=N/OCC(=O)O)C(=O)N[C@@H]2C(=O)N(S(=O)(=O)O)[C@@H]2CNC(=O)NCc2cc(=O)c(O)cn2O)cs1 [Example 69, ({[(1Z)-1-(2-amino-1,3-thiazol-4-yl)-2-({(2R,3S)-2-[({[(1,5-dihydroxy-4-oxo-1,4-dihydropyridin-2-yl)methyl]carbamoyl}amino)methyl]-4-oxo-1-sulfoazetidin-3-yl}amino)-2-oxoethylidene]amino}oxy)acetic acid] | 0.25 (≈ 0.414 µM)

— patent US20130252935A1, “Monobactams” (PFIZER INC., priority 2010, published 2013)
